{
  "source": "patent US4487718A",
  "about": "“Peptides” (Kowa Company, Ltd., priority 1983, dated 1984)",
  "key": {"[1]": {"target": "T1, activated blood coagulation factor XIII (Homo sapiens, UniProt P00488)", "T1 sequence (P00488 39-732 limits assumed)": "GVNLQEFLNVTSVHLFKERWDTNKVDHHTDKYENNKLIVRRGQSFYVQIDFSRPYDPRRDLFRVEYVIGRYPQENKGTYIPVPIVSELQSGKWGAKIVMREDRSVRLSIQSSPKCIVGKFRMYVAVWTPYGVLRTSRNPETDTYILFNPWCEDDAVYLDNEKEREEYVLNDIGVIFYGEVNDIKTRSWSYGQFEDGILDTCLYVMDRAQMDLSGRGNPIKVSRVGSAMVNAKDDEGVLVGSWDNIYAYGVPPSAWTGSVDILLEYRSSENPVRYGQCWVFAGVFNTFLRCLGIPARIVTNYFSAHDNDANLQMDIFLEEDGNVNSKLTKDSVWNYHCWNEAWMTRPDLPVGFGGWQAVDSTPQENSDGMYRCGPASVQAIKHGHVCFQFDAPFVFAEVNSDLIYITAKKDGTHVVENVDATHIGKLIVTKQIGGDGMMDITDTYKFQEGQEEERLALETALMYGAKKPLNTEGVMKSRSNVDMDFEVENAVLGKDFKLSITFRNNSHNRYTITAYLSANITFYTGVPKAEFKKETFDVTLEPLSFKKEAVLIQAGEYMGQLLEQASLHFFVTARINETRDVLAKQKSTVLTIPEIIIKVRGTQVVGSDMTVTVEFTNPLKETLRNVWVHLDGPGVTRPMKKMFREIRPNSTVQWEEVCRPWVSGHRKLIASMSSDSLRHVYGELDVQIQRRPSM", "test": "Crosslinking capacity of the peptide (Ia) to fibrin (125I-labeled peptide, fibrin clot radioactivity)", "format": "biochemical", "description": "To a mixed solution of 20 μl of the peptide (Ia) labeled with a radioactive isotope ^125 I, 20 μl of fibrinogen (30 mg/ml, 88 μM, containing 2 or 10 μ/ml of the blood coagulation factor XIII) and 140 μl of a Tris buffer, was added 20 μl of a mixed solution of thrombin (3.3 u/ml) and calcium chloride (50 mM). The resulting mixture was then incubated at 37° C.\nThe clotting sample was frozen instantaneously at each time with dry ice/acetone to terminate the reaction and then lyophilized. The resulting fibrin film was washed three times, each for 5 minutes, with 200 μl of 50 mM EDTA containing 1% of BSA (brovine serum albmin). The thus washed fibrin film was measured in its radioactivity to determine the amount of the peptide coupled with the fibrin [see \"Biochim, Biophys, Acta\", 661, 280-286, (1981)]."}, "[2]": {"target": "T2, crosslinking of α2 -PI to fibrin (Homo sapiens, UniProt P00488)", "T2 sequence (P00488 39-732 limits assumed)": "T1 sequence (P00488 39-732 limits assumed)", "test": "Inhibitory effect against the crosslinking of α2 -PI to fibrin", "format": "biochemical", "settings": "peptide 0-50 mM solution, α2 -PI 10 μM solution; FIG. 2", "description": "Twenty microliters of a mixed solution of thrombin (3.3 u/ml) and calcium chloride (50 mM) was added to a mixed solution consisting of 20 μl of fibrinogen (30 mg/ml, 88 μM, containing 10 u/ml of the blood coagulation factor XIII), 20 μl of α2 -PI (0.67 mg/ml, 10 μM), 20 μl of a ^125 I-labeled peptide (0-50 mM) and 120 μl of a Tris buffer. The amount of the peptide bonded to the resulting fibrin clot was then determined in the same manner as in Experiment 1.\nOn the other hand, the amount of α2 -PI coupled with a fibrin clot was also determined using ^125 I-labeled α2 -PI and an unlabeled peptide."}, "[3]": {"system": "fibrin clot", "test": "Fibrinolysis-accelerating effect: release of 125I from fibrin clots of platelet-rich plasma", "set-up": "species or system human", "settings": "peptide 0-500 μM, FIG. 3", "description": "Healthy human blood to which sodium citrate had been added, was subjected to centrifugal separation to prepare platelet-rich plasma. A trace amount of ^125 I-labeled fibrinogen was added to and mixed with the platelet-rich plasma. 250 mM solutions of calcium chloride which contained the peptide (Ia) at different levels (0-5 mM) were poured, each in a volume of 20 μl, into glass test tubes. Each test tube was added with 180 μl of the above plasma and then allowed to stand at 37° C. A fibrin clot was formed in several minutes. Clot retraction started about 15 minutes later and was completed in about 30 minutes.\nThereafter, 800 μl of platelet-poor plasma which contained the peptide (Ia) at different levels (0-500 μM) and 1 u of Hirudin was added to each of the test tubes. The test tube was then incubated at 37° C. The contents were sampled periodically to measure ^125 I released into the supernatant."}, "[4]": {"system": "fibrin clot", "test": "Synergistic effects in combination with tissue plasminogen activator (TPA), added before or after clot formation", "set-up": "species or system human", "settings": "with melanoma-derived TPA, compared with no activator, FIGS. 4 and 5", "description": "Healthy human blood to which sodium citrate had been added, was subjected to centrifugal separation to prepare platelet-rich plasma. A trace amount of ^125 I-labeled fibrinogen was added to and mixed with the platelet-rich plasma. 250 mM solutions of calcium chloride which contained the peptide (Ia) at different levels (0-5 mM) and 1 u/ml of a melanoma-derived tissue plasminogen activator (TPA), were poured 20 μl by 20 μl into glass test tubes, each of which was then added with 180 μl of the above plasma. A fibrin clot was formed in several minutes. Clot retraction started about 15 minutes later and was completed in about 30 minutes.\nThereafter, each test tube was added with 800 μl of platelet-poor plasma which contained the peptide (Ia) at different levels (0-500 μM) and 1 u of Hirudin. The test tube was then incubated at 37° C. The contents were sampled periodically to measure ^125 I released into the supernatant.\nHealthy human blood to which sodium citrate had been added, was subjected to centrifugal separation to prepare platelet-rich plasma. A trace amount of ^125 I-labeled fibrinogen was added to and mixed with the platelet-rich plasma. 250 mM solutions of calcium chloride were poured 20 μl by 20 μl into glass test tubes, each of which was then added with 180 μl of the above plasma. A fibrin clot was formed in several minutes. […]"}},
  "data": [
    {"substance": "L-Asn-L-Gln-L-Glu-L-Gln-L-Val-L-Ser-L-Pro-L-Leu-L-Thr-L-Gly-L-Leu-L-Lys-NH [peptide (Ia)]", "values": [
      {"measurement": "amount of the peptide coupled with the fibrin at equilibrium", "setting": "[1]; 125I-labeled peptide, fibrinogen containing factor XIII, thrombin, calcium chloride, 37° C., FIG. 1", "result": "about 40%"},
      {"measurement": "crosslinking velocity to fibrin", "setting": "[1]; compared with α2 -PI, FIG. 1", "result": "substantially the same as that of α2 -PI"},
      {"measurement": "glutamine substrate for the activated blood coagulation factor XIII", "setting": "[1]; conclusion from Experiment 1", "result": "good glutamine substrate"},
      {"measurement": "inhibition of the crosslinking of α2 -PI to the fibrin", "setting": "[2]", "result": "inhibits competitively"},
      {"measurement": "fibrinolysis-accelerating effect (dissolution of fibrin clot)", "setting": "[3]; human platelet-rich plasma clot, 37° C., compared with absence of peptide", "result": "has a fibrinolysis-accelerating effect"},
      {"measurement": "dependence of the fibrinolysis-accelerating effect on the amount added", "setting": "[3]", "result": "proportional to the amounts of the peptide (Ia) added"},
      {"measurement": "fibrinolysis-accelerating effect in combination with a plasminogen activator", "setting": "[4]", "result": "synergistically enhanced fibrinolysis-accelerating effect"}
    ]}
  ]
}
